According to PMC10285950 (ACS Omega, 2023):
Several values for one entry are separate records, joined by “and”; a condition that tells them apart may be missing. Identical values can stand only once.

Tests used:
[1] = molecular target: T1, human 5HT1A receptor (Homo sapiens, UniProt P08908); test: [3H]8-OH-DPAT binding at the 5-HT1A receptor; conditions: HEK-h5HT1A membranes
T1 sequence (P08908 1-422): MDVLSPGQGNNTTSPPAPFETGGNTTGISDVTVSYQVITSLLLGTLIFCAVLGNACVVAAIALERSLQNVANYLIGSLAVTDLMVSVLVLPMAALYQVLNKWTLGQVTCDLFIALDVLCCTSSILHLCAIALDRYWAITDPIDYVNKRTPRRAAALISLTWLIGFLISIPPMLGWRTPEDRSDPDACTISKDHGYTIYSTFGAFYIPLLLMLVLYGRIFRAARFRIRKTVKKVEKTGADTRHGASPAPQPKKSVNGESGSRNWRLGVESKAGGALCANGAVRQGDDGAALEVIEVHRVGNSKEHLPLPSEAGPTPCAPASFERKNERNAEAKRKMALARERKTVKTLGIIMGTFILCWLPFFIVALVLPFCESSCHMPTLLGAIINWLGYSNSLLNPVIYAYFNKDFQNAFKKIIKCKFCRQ

[2] = molecular target: h5HT7A receptor (Homo sapiens, UniProt P34969); test: [3H]5-HT binding at 5HT7A receptors; conditions: HEK cells transiently transfected with h5HT7A
Sequence of h5HT7A receptor (P34969 1-445 isoform P34969-2): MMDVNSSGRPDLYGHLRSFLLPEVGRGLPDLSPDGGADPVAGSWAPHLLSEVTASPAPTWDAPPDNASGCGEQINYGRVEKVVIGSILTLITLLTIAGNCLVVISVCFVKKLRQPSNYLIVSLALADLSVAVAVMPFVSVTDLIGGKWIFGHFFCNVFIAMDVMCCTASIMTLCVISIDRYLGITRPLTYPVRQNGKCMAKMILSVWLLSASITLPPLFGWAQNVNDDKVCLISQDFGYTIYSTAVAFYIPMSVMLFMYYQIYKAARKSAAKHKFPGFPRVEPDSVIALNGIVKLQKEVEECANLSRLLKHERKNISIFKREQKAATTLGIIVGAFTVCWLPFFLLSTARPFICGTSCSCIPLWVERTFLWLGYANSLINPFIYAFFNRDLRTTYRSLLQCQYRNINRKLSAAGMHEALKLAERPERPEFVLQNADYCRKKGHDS

[3] = molecular target: T2, 5-HT1AR (HEK-h5HT1A membranes) (Homo sapiens, UniProt P08908); test: HEK-5HT1A [35S]GTPγS binding functional assay; type: biochemical; conditions: for 5-HT1AR [35S]GTPγS assay % max ± SEM: maximal effect normalized to maximal effect of serotonin; for functional character at 5-HT1AR ([35S]GTPγS assay): result in words
T2 sequence (P08908 1-422): T1 sequence (P08908 1-422)

[4] = molecular target: T3, 5-HT7AR (Homo sapiens, UniProt P34969); test: HEK-5HT7A/cAMP; type: cell-based
T3 sequence (P34969 1-445 isoform P34969-2): as above

[5] = molecular target: T3, 5-HT7AR; test: HEK-5HT7A/cAMP; type: cell-based; remark: listed apart in the source

| SMILES | 5-HT1AR [3H]8-OH-DPAT binding hill slope ± SEM [1] | 5-HT7AR [3H]5-HT binding hill slope ± SEM [2] | 5-HT1AR [35S]GTPγS assay % max ± SEM [3] | functional character at 5-HT1AR ([35S]GTPγS assay) [3] | agonist activity at 5-HT7AR ([4]; result in words) | 5-HT7AR adenylate cyclase % max inhib. ± SEM ([5]; maximal inhibition of cAMP formation defined with 10 μM lurasidone) [%] | 5-HT1AR [35S]GTPγS assay % max ± SEM ([3]; listed as serotonin (5-HT)) [%] | 5-HT7AR adenylate cyclase % max ± SEM ([4]; agonist effect, normalized to maximal serotonin effect) | inhibition ([5]; read-out: 5-HT7AR adenylate cyclase % max inhib. ± SEM) [%] |
| --- | --- | --- | --- | --- | --- | --- | --- | --- | --- |
| CC1(CCCN2CCN(c3ccccn3)CC2)Cc2cc(Cl)ccc2C1=O (racemic) [SYA0340, 5-chloro-2-methyl-2-(3-(4-(pyridin-2-yl)piperazin-1-yl)propyl)-2,3-dihydro-1H-inden-1-one] | –0.66 ± 0.09 | –0.59 ± 0.03 | 101.5% and 101.5 ± 2.8% | full agonist | do not show any agonist activity | 94.7 ± 4.1 |  |  |  |
| NCCc1c[nH]c2ccc(O)cc12 [5-HT, serotonin] | –0.96 ± 0.06 | –1.07 ± 0.09 | 101.2 ± 1.1% | full agonist |  |  | 101.2 | 95.8% and 95.8 ± 1.6% |  |
| O=C1[C@@H]2[C@H]3CC[C@H](C3)[C@@H]2C(=O)N1C[C@@H]1CCCC[C@H]1CN1CCN(c2nsc3ccccc23)CC1 [lurasidone] |  | –0.76 ± 0.11 |  |  |  |  |  |  | 98 ± 2 |
